Literature values in US4971799A, “Percutaneous-administration-type pharmaceutical preparation of nitroglycerin” (Sekisui Kagaku Kogyo Kabushiki Kaisha, priority 1987, dated 1990).

Settings: intravenous injection

For O=[N+]([O-])OCC(CO[N+](=O)[O-])O[N+](=O)[O-] [nitroglycerin], the Duration of effects is listed as “effects are lost after a very short period of time” and the Side effects (high blood level for a short period) is listed as “headache, dizziness, orthostatic hypotension”.
